This note sets out measurements from US12559725B2, “Formulation comprising extracellular vesicles, method for producing the same, and uses thereof” (MacKay Memorial Hospital, priority 2018, dated 2026).

Test [1] concerns U937 myeloid cells. The experiment in a line: Reactive oxygen species in PMA-stimulated U937 myeloid cells (DCFH flow cytometry). The format is cell-based. The following applies: EVs 0.15 mg/ml, curcumin 0.8 mM, 30 minutes, vs medium only. How it is done:
The U937 myeloid cells were seeded in 24-well plate at a density of 8×10^4 cells/well (in 0.4 ml) followed by the stimulation of 100 nM PMA (phorbol myristate acetate) at 37° C., 5% CO2 incubator for 48 hours. The cells were washed with PBS twice before adding medium with and without ucMSC-naive-EVs (0.15 mg/ml), curcumin (Cur, 0.8 mM) or EV-curcumin (Cur/EVs, 0.8 mM) for 30 minutes. The reactions were incubated with DCFH ([…]) at 1 uM for 20 minutes before flow cytometric analysis of H2O2-mediated fluorescence at 480 nm emission.
In general terms: A flow cytometer gives signals particle by particle.

Test [2] concerns cisplatin-induced hearing loss. The experiment in a line: Cisplatin-induced hearing loss mouse model (ABR, organ of Corti explants). Type of test: in vivo, C57BL/6 mice. As to conditions: intraperitoneal 0.1 ml day 1 to day 5; ABR threshold at 12 kHz, 10 days post-treatment. How it is done:
In a mouse model of hearing loss, the inner cell damage was induced by administering to C57BL/6 mice 4 mg/kg cisplatin daily for 5 consecutive days, in which the mice were intraperitoneally treated with 0.1 ml PBS (serving as the negative control group), 0.1 ml ucMSC-naive-EVs or 0.1 ml EV-curcumin (about 120 ug protein of EVs, 2.2×10^11 to 2.8×10^11 vesicles) from day 1 to day 5. The protecting effect of ucMSC-naive-EVs and EV-curcumin was assessed by analyzing the cell number and function of the inner ear cells. To assess the protecting effect of the present EV formulation on hearing loss and inner ear cell death, auditory brain response (ABR) threshold at 12 kHz and immunofluorescence images of organ of Corti explants were measured 10 days post-treatment. To obtain the ucMSC-EVs preparations with and without curcumin incorporation enough for the animal study requiring a larger amount of EVs for daily intraperitoneal injection, the ucMSC-EVs in paired formulations with and without curcumin incorporation were prepared and stored at −80° C. for at least 3 months. To make sure homogeneous application of ucMSC-EV to each mouse, different batches of EVs were thawed and mixed for the experiment right before the animal study. One-way ANOVA with Duncan post hoc test was performed when compared with the control or cisplatin group.

Test [3] deals with mouse model of anti-aging. The experiment in a line: D-galactose aging mouse model, Morris water maze. Type of test: in vivo, BALB/c mice. The following applies: D-galactose 6 weeks, then intraperitoneal three times a week for 3 weeks. How it is done:
In a mouse model of anti-aging, BALB/c mice were subcutaneously treated with 100 mg/kg D-galactose every day for 6 consecutive weeks. Then, the mice were intraperitoneally administered with 0.1 ml PBS (serving as the negative control group), 0.1 ml curcumin (1 μM), 0.1 ml ucMSC-naive-EVs, 0.1 ml EV-curcumin (about 120 ug protein of EVs, 2.2×10^11 vesicles), or 5 mg/kg β-lapachone three times a week for 3 weeks after 6 weeks of aging induction and the pre-test of cognition assessment. The anti-aging effect of ucMSC-naive-EVs and EV-curcumin was then assessed by the cognition ability in Morris water maze model.

As to `COc1cc(/C=C/C(=O)CC(=O)/C=C/c2ccc(O)c(OC)c2)ccc1O` [curcumin], in test [1], the “production of reactive oxygen species (H2O2-mediated fluorescence)” value was “significantly decreased the production of reactive oxygen species”. For the same compound, the “cisplatin-induced hearing loss (ABR)” value in test [2] is “not curcumin alone”. Besides, the “time to reach the safety island (escape latency), Morris water maze” value in test [3] is “obviously reduced the time to reach the safety island”.
Take `CC1(C)CCC2=C(O1)c1ccccc1C(=O)C2=O` [β-lapachone]: in test [3], the “time to reach the safety island (escape latency), Morris water maze” value was “obviously reduced the time to reach the safety island”.
